In ChEMBL document CHEMBL1144373, “NMDA-NR2B subtype selectivity of stereoisomeric 2-(1,2,3,4-tetrahydro-1-isoquinolyl)ethanol derivatives” (Bioorg Med Chem Lett, 2005):

How the values were obtained:
[1] = target: Glutamate [NMDA] receptor; test: Mean inhibitory concentration against [3H]ifenprodil binding to porcine N-methyl-D-aspartate (NMDA) glutamate receptor; n=1; assay type: protein-complex assay, Sus scrofa
[2] = target: Glutamate [NMDA] receptor; test: Mean inhibitory constant against porcine N-methyl-D-aspartate (NMDA) glutamate receptor; n=3; assay type: protein-complex assay, Sus scrofa
[3] = target: Glutamate [NMDA] receptor; test: Mean inhibitory concentration against [3H]MK-801 binding to porcine N-methyl-D-aspartate (NMDA) glutamate receptor; n=3; assay type: protein-complex assay, Sus scrofa
[4] = target: Glutamate [NMDA] receptor; test: Mean inhibitory concentration against [3H]ifenprodil binding to porcine N-methyl-D-aspartate (NMDA) glutamate receptor; n=3; assay type: protein-complex assay, Sus scrofa
[5] = target: Glutamate NMDA receptor; Grin1/Grin2a (Rattus norvegicus, UniProt P35439+Q00959); test: Mean inhibitory concentration against rat N-methyl-D-aspartate (NMDA) glutamate receptor 1a/2A expressed in Xenopus oocytes; assay type: cell-based, Oocyte
Sequence of Glutamate NMDA receptor; Grin1/Grin2a (Q00959 whole entry, other chains not shown): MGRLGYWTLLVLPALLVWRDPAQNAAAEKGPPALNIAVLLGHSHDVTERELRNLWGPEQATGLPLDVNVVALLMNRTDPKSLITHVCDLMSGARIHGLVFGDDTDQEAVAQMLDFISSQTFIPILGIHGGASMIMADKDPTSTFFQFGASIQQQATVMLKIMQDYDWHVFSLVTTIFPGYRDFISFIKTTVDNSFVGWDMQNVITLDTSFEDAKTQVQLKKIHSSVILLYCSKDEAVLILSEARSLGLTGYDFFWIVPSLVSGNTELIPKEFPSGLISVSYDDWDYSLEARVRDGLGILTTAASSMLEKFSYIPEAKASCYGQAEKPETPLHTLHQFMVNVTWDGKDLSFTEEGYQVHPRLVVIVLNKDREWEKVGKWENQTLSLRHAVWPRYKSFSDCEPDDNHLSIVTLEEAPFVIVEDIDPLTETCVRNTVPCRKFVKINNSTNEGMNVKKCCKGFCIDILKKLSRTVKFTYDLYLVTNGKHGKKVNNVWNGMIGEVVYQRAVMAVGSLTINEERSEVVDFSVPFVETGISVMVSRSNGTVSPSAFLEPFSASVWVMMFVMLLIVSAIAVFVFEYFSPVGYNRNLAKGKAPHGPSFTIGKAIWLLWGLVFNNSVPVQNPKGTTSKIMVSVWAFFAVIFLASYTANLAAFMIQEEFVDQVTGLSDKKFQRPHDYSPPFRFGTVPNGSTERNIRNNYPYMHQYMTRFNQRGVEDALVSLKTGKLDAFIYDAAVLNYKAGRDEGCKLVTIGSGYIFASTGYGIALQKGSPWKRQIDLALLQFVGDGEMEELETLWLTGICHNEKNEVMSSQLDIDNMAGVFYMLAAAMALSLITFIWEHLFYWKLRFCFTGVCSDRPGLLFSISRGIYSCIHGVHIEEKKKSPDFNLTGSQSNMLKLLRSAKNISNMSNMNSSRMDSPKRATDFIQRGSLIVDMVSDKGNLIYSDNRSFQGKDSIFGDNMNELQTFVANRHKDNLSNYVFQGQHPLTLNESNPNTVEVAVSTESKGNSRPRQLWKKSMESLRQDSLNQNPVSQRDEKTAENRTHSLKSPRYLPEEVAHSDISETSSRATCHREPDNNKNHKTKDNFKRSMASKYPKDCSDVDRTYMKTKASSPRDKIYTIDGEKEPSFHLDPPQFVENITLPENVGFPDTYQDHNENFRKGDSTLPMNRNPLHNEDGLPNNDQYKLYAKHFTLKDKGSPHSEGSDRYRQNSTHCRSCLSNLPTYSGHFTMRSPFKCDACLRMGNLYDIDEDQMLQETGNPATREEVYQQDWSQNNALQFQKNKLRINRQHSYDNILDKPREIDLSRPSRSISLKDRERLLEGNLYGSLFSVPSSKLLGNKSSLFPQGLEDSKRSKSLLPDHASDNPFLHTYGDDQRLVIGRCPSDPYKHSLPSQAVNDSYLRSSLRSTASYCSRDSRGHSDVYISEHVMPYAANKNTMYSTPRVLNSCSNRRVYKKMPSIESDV

[6] = Mean inhibitory concentration against rat N-methyl-D-aspartate (NMDA) glutamate receptor 1a/2D expressed in Xenopus oocytes; assay type: cell-based; settings: oocyte
[7] = target: Glutamate NMDA receptor; Grin1/Grin2b (Rattus norvegicus, UniProt P35439+Q00960); test: Mean inhibitory concentration against rat N-methyl-D-aspartate (NMDA) glutamate receptor 1a/2B expressed in Xenopus oocytes; assay type: cell-based, Oocyte
Sequence of Glutamate NMDA receptor; Grin1/Grin2b (Q00960 whole entry, other chains not shown): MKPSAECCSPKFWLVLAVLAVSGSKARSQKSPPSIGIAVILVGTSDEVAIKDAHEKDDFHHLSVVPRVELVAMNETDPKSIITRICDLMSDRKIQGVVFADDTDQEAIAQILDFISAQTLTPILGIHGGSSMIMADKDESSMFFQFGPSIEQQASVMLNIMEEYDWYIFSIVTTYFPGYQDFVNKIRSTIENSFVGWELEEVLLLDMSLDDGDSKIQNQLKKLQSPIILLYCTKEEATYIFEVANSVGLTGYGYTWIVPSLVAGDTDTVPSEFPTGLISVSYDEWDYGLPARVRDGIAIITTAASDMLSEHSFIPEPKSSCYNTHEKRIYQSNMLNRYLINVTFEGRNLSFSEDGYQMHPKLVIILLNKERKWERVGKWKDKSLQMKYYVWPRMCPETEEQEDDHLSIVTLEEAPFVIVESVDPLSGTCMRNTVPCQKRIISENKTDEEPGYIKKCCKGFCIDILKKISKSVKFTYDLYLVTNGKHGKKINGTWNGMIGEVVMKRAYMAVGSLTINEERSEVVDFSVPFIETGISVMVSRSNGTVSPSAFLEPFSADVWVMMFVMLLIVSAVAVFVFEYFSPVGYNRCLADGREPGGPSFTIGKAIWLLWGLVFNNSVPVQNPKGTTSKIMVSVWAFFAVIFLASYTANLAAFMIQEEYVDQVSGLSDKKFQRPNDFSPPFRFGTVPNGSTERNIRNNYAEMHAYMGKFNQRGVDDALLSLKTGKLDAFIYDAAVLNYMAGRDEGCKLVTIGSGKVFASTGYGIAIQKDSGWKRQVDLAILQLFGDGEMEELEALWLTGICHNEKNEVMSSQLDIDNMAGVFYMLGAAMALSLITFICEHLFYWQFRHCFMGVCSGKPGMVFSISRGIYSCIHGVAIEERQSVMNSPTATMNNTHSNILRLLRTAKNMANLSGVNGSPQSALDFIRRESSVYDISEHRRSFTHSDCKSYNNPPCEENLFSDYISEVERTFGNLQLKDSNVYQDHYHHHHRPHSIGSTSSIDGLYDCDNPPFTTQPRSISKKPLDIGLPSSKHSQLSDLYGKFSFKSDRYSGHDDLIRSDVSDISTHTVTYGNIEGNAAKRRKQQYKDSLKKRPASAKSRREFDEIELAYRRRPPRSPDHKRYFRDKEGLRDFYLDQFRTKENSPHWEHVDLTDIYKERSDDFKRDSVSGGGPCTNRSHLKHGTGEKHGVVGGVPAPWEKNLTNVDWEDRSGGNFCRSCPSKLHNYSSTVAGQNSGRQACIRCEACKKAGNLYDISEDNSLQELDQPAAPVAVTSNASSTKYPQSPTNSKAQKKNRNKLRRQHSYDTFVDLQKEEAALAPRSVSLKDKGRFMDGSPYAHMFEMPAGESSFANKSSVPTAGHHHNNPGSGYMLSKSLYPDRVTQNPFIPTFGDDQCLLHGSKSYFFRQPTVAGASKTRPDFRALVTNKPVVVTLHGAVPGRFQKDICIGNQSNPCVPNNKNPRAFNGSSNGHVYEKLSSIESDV

[8] = target: Glutamate NMDA receptor; Grin1/Grin2c (Rattus norvegicus, UniProt P35439+Q00961); test: Mean inhibitory concentration against rat N-methyl-D-aspartate (NMDA) glutamate receptor 1a/2C expressed in Xenopus oocytes; assay type: cell-based, Oocyte
Sequence of Glutamate NMDA receptor; Grin1/Grin2c (Q00961 whole entry, other chains not shown): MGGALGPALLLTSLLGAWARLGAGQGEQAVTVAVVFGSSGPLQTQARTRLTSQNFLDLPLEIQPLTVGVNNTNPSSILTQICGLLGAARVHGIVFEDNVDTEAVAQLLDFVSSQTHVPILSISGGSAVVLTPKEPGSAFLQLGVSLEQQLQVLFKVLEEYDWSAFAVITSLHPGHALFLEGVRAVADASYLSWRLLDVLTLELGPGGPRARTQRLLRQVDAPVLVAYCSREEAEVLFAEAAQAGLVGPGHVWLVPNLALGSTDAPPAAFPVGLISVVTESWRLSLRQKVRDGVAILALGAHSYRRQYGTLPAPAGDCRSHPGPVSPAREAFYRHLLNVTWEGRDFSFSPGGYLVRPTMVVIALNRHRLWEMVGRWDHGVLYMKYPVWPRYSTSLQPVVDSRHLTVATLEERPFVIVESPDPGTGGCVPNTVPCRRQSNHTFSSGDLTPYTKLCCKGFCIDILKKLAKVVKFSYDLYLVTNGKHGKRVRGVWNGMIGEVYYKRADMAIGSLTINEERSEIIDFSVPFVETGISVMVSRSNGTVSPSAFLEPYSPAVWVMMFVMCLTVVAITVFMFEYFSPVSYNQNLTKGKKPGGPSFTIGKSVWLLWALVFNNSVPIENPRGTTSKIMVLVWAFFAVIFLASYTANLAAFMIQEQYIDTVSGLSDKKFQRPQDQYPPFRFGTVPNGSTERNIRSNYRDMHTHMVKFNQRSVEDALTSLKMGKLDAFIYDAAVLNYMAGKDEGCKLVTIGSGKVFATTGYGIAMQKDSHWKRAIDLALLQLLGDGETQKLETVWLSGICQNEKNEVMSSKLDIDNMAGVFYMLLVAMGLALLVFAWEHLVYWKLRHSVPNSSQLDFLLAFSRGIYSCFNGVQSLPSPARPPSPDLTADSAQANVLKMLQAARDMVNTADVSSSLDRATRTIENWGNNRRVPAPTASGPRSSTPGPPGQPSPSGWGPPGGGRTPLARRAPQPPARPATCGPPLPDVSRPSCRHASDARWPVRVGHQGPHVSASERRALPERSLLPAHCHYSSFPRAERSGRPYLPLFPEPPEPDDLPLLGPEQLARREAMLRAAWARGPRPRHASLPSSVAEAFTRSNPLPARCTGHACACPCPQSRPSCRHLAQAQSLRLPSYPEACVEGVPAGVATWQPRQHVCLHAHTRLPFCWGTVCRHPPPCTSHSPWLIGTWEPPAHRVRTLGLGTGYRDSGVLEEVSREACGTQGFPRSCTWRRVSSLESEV

[9] = target: Glutamate [NMDA] receptor (Homo sapiens) (UniProt Q05586+Q12879+Q13224+O15399+O60391+Q14957+Q8TCU5); test: Specific binding of [3H]ifenprodil to N-methyl-D-aspartate (NMDA) glutamate receptor remaining in presence of 100 uM inhibitor; assay type: protein-complex assay; settings: Sus scrofa
[10] = target: Glutamate [NMDA] receptor; test: Mean inhibitory constant against porcine N-methyl-D-aspartate (NMDA) glutamate receptor; n=1; assay type: protein-complex assay, Sus scrofa

Row | SMILES | IC50 [1] [µM] | Ki [2] [µM] | IC50 [3] [µM] | IC50 [4] [µM] | IC50 [5] [µM] | IC50 [6] [µM] | IC50 [7] [µM] | IC50 [8] [µM] | Binding [9] [%] | Ki [10] [µM]
1 | COc1cc2c(cc1OC)[C@@H](C[C@@H](O)c1ccc(Cl)cc1)NCC2 | 290 | 0.26 | 37 |  |  |  |  |  |  | 
2 | COc1cc2c(cc1OC)[C@@H](C[C@@H](O)c1ccc(Cl)cc1)N(C)CC2 |  | 0.007 | 56 | 100 |  |  |  |  |  | 
3 | COc1cc2c(cc1OC)[C@H](C[C@H](O)c1ccc(Cl)cc1)N(C)CC2 |  | 0.5 | 0.96 | 0.059 | 137 | 27.5 | 1.32 | 5.29 |  | 
4 | COc1cc2c(cc1OC)[C@@H](C[C@H](O)c1ccc(Cl)cc1)N(C)CC2 |  | 0.11 | 31 | 24 |  |  |  |  |  | 
5 | COc1ccc([C@@H](O)C[C@H]2NCCc3cc(OC)c(OC)cc32)cc1 | 420 | 11 | 140 |  |  |  |  |  |  | 
6 | COc1ccc([C@H](O)C[C@H]2NCCc3cc(OC)c(OC)cc32)cc1 |  | 0.72 | 120 |  |  |  |  |  | 63 | 
7 | COc1cc2c(cc1OC)[C@H](C[C@@H](O)c1ccc(Cl)cc1)NCC2 |  | 2.6 | 34 | 95 |  |  |  |  |  | 
8 | COc1cc2c(cc1OC)[C@H](C[C@@H](O)c1ccc(Cl)cc1)N(C)CC2 |  | 2.7 | 45 | 52 |  |  |  |  |  | 
9 | COc1ccc([C@H](O)C[C@H]2c3cc(OC)c(OC)cc3CCN2C)cc1 |  |  |  |  |  |  |  |  | 34 | 22
10 | COc1ccc([C@H](O)C[C@@H]2c3cc(OC)c(OC)cc3CCN2C)cc1 |  | 0.06 |  |  |  |  |  |  | 50 | 
11 | COc1ccc([C@H](O)C[C@@H]2NCCc3cc(OC)c(OC)cc32)cc1 | 243 | 5.8 | 110 |  |  |  |  |  |  | 
12 | COc1ccc([C@@H](O)C[C@@H]2c3cc(OC)c(OC)cc3CCN2C)cc1 |  | 0.38 | 120 |  |  |  |  |  | 87 | 
13 | COc1ccc([C@@H](O)C[C@@H]2NCCc3cc(OC)c(OC)cc32)cc1 |  |  | 29 | 14 |  |  |  |  |  | 
14 | COc1cc2c(cc1OC)[C@@H](C[C@H](O)c1ccc(Cl)cc1)NCC2 |  | 6.7 | 40 | 43 |  |  |  |  |  | 
15 | COc1ccc([C@@H](O)C[C@H]2c3cc(OC)c(OC)cc3CCN2C)cc1 |  | 2.7 | 4.6 | 0.24 | 107 | 341 | 3.16 | 155 |  | 
16 | COc1cc2c(cc1OC)[C@H](C[C@H](O)c1ccc(Cl)cc1)NCC2 |  | 0.92 | 7.4 | 1.1 | 104 | 48.4 | 10.5 | 24.9 |  | 
